Reference: patent US20030166723A1, “Ige production inhibitors” (priority 2000, published 2003)
Like-named read-outs stand apart in the source and are kept apart here.

Tests used:
NC/Nga mice = experiment: Disease score of NC/Nga mice (AD model), oral administration; type: in vivo, mouse
Source text: As a model animal, NC/Nga mouse was used. The NC/Nga mouse is an inbred mouse established in 1957, which is originated from “[…]” mouse, a pet mouse. Long since, it has been known that this mouse is sensitive to X-rays and to ovalbumin-caused anaphylactic shocks. […] Such AD-like phenotype occurs in the ordinary environment but not in a SPF (specific pathogen-free) environment where neither microorganism nor parasite exists, so that the onset of the disease can be controlled. In this view, the mouse was used as a disease model of atopic dermatitis in carrying out the present invention As the model animal, 5-week-old male NC/Nga mice bred in SPF environment, presenting neither dermatitis-like feature nor hyperIgE syndrome were used. To these mice, GLA ethyl ester (degree of purification of 95.98%: manufactured by Idemitsu Material Co., Ltd.) was administered by a stomach tube method in a dosage of 50 mg/individual once every other day starting from 5-week-old to obtain a GLA-administered group composed of 6 animals. On the other hand, as a control, PBS (phosphate buffered saline) instead of GLA ethyl ester was likewise administered in a dosage of 50 μg/individual to obtain a control group composed of 6 animals. In each week from the onset of administration (5 weeks old) up to 19 weeks old, the disease scores of the above-mentioned mice were converted into points according to the method of Matsuda et al. (Int. Immunol., 9, 461-466, 1997). A concrete method is described below. The following 5 items from A to E were scored by a three point full mark scoring system of 0 (none), 1 (slightly aggravated), 2 (moderately aggravated), and 3 (considerably aggravated). In total, 15 points make a full score. […] B (erythema, bleeding); Bleeding from ears and face and erythema on the back of ears were scored. C (edema): Mainly, degree of swelling of ears was scored. D (abrasions, erosion): Abrasions around the face, on the back of ears, and at around the base of arm were scored. E (dryness): Degree of dry skin from the back to the face was scored. As the model animal, 5-week-old male NC/Nga mice bred in SPF environment, presenting neither dermatitis-like feature nor hyperIgE syndrome were used. The animals were divided into each group composed of 10 animals. For the GLA-administered group, GLA ethyl ester (degree of purification of 95.98%: manufactured by Idemitsu Material Co., Ltd.) was administered by a stomach tube method in a dosage of 0.1 mg/individual once every other day. Administration of GLA was performed by using, olive oil containing little essential fatty acid which was added to 0.1 mg of GLA ethyl ester to make 50 μl. For the control group, 50 μl of olive oil alone was likewise administered. The disease score of mice in these groups were calculated every week in the same manner as in Example 1 and total IgE amount in plasma was measured once every other week.

IgE = conditions: for total IgE amount in plasma compared with control group: stomach tube
Experimental: As the model animal, 5-week-old male NC/Nga mice bred in SPF environment, presenting neither dermatitis-like feature nor hyperIgE syndrome were used. To these mice, GLA ethyl ester (degree of purification of 95.98%: manufactured by Idemitsu Material Co., Ltd.) was administered by a stomach tube method in a dosage of 50 mg/individual once every other day starting from 5-week-old to obtain a GLA-administered group composed of 6 animals. On the other hand, as a control, PBS (phosphate buffered saline) instead of GLA ethyl ester was likewise administered in a dosage of 50 μg/individual to obtain a control group composed of 6 animals.
In addition, blood was collected from the above-mentioned mice at the time of starting the administration (5 weeks old), and at 7, 9, and 11 weeks old and was centrifuged at 1,500 rpm for 10 minutes to obtain plasma. Then, total IgE amount in the plasma was measured by a sandwich ELISA method. A concrete method thereof is described below.
Rat anti-murine IgE monoclonal antibody (manufactured by PharMingen Co.) diluted to […] with coating buffer (0.1 M NaHCO3, 0.5 M NaCl, pH 8.5) was added to each well of a plate (NUNC-IMMUNOPLATE, manufactured by NUNC Inc., A/S) in an amount of 50 μl, and left to stand at 4° C. overnight or at 37° C. for 3 hours, followed by washing the wells with PBS/Tween (PBS, 0.05% Tween-20, pH 7.5) 3 times.
To each well, 200 μl of blocking buffer (PBS containing 2% skimmed milk) was added and incubated at 37° C. for 3 hours, followed by washing the wells with PBS/Tween 3 times.
Then, the above-mentioned murine plasma was diluted 100 folds with dilution buffer (PBS, 2% skimmed milk, 0.25% SDS) to prepare a sample for measurement. Furthermore, murine IgE standard (manufactured by PharmMingen Co.) was diluted with dilution buffer to prepare a standard for measurement.
The samples for measurement and standard were added to each well in amounts of 50 μl/well and incubated at 37° C. for 3 hours, followed by washing the wells with PBS/Tween 3 times.
Biotinylated rat anti-murine IgE antibody (manufactured by PharmMingen Co.) diluted to 2 μg/ml with dilution buffer was added to each well in an amount of 50 μl and incubated at 37° C. for about 3 hours, followed by washing the wells with PBS/Tween 6 times.
Furthermore, alkaline phosphatase-labeled Streptoavidin (manufactured by BioSource, Inc.) diluted to 1.000 folds with dilution buffer was added to the wells in an amount of 50 μl/well and incubated at 37° C. for 1 hour, followed by washing the wells with PBS/Tween 6 times.
As the model animal, 5-week-old male NC/Nga mice bred in SPF environment, presenting neither dermatitis-like feature nor hyperIgE syndrome were used. The animals were divided into each group composed of 10 animals. For the GLA-administered group, GLA ethyl ester (degree of purification of 95.98%: manufactured by Idemitsu Material Co., Ltd.) was administered by a stomach tube method in a dosage of 0.1 mg/individual once every other day. Administration of GLA was performed by using, olive oil containing little essential fatty acid which was added to 0.1 mg of GLA ethyl ester to make 50 μl. For the control group, 50 μl of olive oil alone was likewise administered.
The disease score of mice in these groups were calculated every week in the same manner as in Example 1 and total IgE amount in plasma was measured once every other week.

[1] = tested on: spleen cells of NC/Nga mice
Source text: In this example, the effect of GLA to inhibit IgE production in vitro was studied by an in vitro class switch induction system using spleen cells of the mice. First, spleen cells were collected from NC/Nga mice by the following method. An 8-week-old NC/Nga mouse bred in SPF environment, presenting neither dermatitis-like feature nor hyperIgE syndrome was sacrificed by dislocation fracture of the cervical vertebrae and the spleen was extracted in a sterile condition. The extracted spleen was placed in RPMI-1640 medium (about 3 ml) in a dish, and separated into individual cells with a sterilized pincette. The separated cells were placed in a 15-ml Falcon tube and the membrane of the spleen was removed. Then, the cells suspended in the medium were centrifuged at 1,500 rpm for 5 minutes to recover only the cells. Subsequently, to remove erythrocytes, the recovered cells were suspended in 10 ml of sterilized lysis buffer at 4° C. to cause hemolysis, followed by washing twice with sterilized PBS produced by Milli-Q at 4° C. to collect spleen cells. A portion of the obtained spleen cells was stained with Trypan Blue (Trypan Blue Stain 0.4%: manufactured by LIFE TECHNOLOGIES, INC.) and counted on a hemacytometer. Then, measurement of IgE amount in the culture supernatant in a class switch induction system was performed by the following procedure. Based on the number of cells counted by the above-mentioned method, the cells were inoculated on a plate (96-well cell culture microtest plate, with flat bottom, low evaporation type, made of polystyrene with a lid: manufactured by FALCON CO.) to a concentration of 2×10^5 cells/ml per well. The medium used here contained cytokine IL-4 (100 U/ml) and LPS (10 μg/ml) as stimulants for the IgE class switch induction. To observe the influences of GLA before, during, or after the stimulation for class switch, GLA was added to the media in various concentrations (0, 10, 20, 40, 60, 80, 120, 160 μg/ml) after 0 hour (at the start of culture), 48 hours, or 72 hours from the start. Here, the addition of GLA was performed by diluting it with ethanol to appropriate concentrations and making the final concentration of ethanol to be 0.1%. All the cultures were performed at 37° C. in a 5%-CO2 incubator and the cultured supernatants were recovered after 7 days (after 168 hours). The IgE amounts thereof were measured by a sandwich ELISA method.

[2] = tested on: spleen cells of NC/Nga mice; conditions: BrdU 60-72 hours
Experimental: Here, the addition of GLA was performed by diluting it with ethanol to appropriate concentrations and making the final concentration of ethanol to be 0.1%.

[3] = oral administration of olive oil containing 0.1 mg GLA ethyl ester

| SMILES | disease score (summary of Example 2) (NC/Nga mice; [3]) | IgE amount (summary of Example 2) (IgE; [3]) | amount of totally produced IgE compared to no-GLA-added lot ([1]; GLA 40 μg/ml added after 0 hour of culture) | degree of decrease in total IgE amount produced versus decrease in cell proliferation ([1]; GLA 20 to 60 μμg/ml added after 0 hour) | inhibition of IgE production, dependence on concentration ([1]; GLA added after 0 hour of culture, 0-160 μg/ml, supernatant after 7 days) | inhibition of IgE production (IgE amount in culture supernatant) ([1]; GLA added after 0 hour of culture, 120 μg/ml, supernatant after 7 days) | inhibition of IgE production (IgE amount in culture supernatant) ([1]; GLA added after 48 hours of culture, above 120 μg/ml) | inhibition of IgE production (IgE amount in culture supernatant) ([1]; GLA added after 48 hours of culture, up to 80 μg/ml) | inhibition of IgE production (IgE amount in culture supernatant) ([1]; GLA added after 72 hours of culture, at the added concentrations measured (10-160 μg/ml)) | average disease score compared with control group (NC/Nga mice; GLA ethyl ester 0.1 mg/individual in olive oil, stomach tube, once every other day, vs olive oil control, week 9 or thereafter) | disease score compared with control group (NC/Nga mice; GLA ethyl ester 0.1 mg/individual in olive oil, stomach tube, once every other day, vs olive oil control, weeks 15 to 17) | disease score compared with control group (NC/Nga mice; GLA ethyl ester 50 mg/individual, stomach tube, once every other day from 5 weeks old, vs PBS control, week 11 and weeks 13 to 19) | increase of disease score with time (NC/Nga mice; GLA ethyl ester 50 mg/individual, stomach tube, once every other day, at week 11 or thereafter) | inhibition of IgE production in vivo (IgE; 2 month-long oral administration to AD-suffering NC/Nga mice with hyperIgE syndrome) | increase of total IgE amount in plasma with time (IgE; GLA ethyl ester 0.1 mg/individual in olive oil, once every other day, at week 13 and thereafter) | total IgE amount in plasma compared with control group (IgE; GLA ethyl ester 0.1 mg/individual in olive oil, once every other day, vs olive oil control, week 13 to week 19) | total IgE amount in plasma compared with control group (IgE; GLA ethyl ester 50 mg/individual, once every other day, vs PBS control, each measurement period (weeks 5, 7, 9, 11)) | total IgE amount in plasma compared with control group (IgE; GLA ethyl ester 50 mg/individual, once every other day, vs PBS control, week 11) | cell proliferation potency with increase of added GLA concentration ([2]; GLA 0-160 μg/ml added after 0 hour) | cell proliferation compared to no-GLA-added lot ([2]; GLA 40 μg/ml added after 0 hour) |
| --- | --- | --- | --- | --- | --- | --- | --- | --- | --- | --- | --- | --- | --- | --- | --- | --- | --- | --- | --- | --- |
| CCCCC/C=C\C/C=C\C/C=C\CCCCC(=O)OCC [GLA ethyl ester] | significantly low | significantly low |  |  |  |  |  |  |  |  |  |  |  |  |  |  |  |  |  |  |
| CCCCC/C=C\C/C=C\C/C=C\CCCCC(=O)O [GLA, γ-linolenic acid] |  |  | about one tenth | significantly greater | inhibits IgE production dose-dependently | complete inhibition of the IgE production | not complete but significant inhibition | no IgE inhibition was observed | no significant inhibition of IgE production was observed | low average scores | significantly low scores | significant inhibition of the disease score | no significant increase was observed | no inhibition of IgE production | no significant increase was observed | significantly low values | low in total IgE amount | significantly low | a decrease in the cell proliferation potency was observed | did not substantially decrease |
